For assay [1], the target named is T1, Atrial natriuretic peptide receptor 1 (Rattus norvegicus, UniProt P18910).
T1 sequence (P18910 whole entry): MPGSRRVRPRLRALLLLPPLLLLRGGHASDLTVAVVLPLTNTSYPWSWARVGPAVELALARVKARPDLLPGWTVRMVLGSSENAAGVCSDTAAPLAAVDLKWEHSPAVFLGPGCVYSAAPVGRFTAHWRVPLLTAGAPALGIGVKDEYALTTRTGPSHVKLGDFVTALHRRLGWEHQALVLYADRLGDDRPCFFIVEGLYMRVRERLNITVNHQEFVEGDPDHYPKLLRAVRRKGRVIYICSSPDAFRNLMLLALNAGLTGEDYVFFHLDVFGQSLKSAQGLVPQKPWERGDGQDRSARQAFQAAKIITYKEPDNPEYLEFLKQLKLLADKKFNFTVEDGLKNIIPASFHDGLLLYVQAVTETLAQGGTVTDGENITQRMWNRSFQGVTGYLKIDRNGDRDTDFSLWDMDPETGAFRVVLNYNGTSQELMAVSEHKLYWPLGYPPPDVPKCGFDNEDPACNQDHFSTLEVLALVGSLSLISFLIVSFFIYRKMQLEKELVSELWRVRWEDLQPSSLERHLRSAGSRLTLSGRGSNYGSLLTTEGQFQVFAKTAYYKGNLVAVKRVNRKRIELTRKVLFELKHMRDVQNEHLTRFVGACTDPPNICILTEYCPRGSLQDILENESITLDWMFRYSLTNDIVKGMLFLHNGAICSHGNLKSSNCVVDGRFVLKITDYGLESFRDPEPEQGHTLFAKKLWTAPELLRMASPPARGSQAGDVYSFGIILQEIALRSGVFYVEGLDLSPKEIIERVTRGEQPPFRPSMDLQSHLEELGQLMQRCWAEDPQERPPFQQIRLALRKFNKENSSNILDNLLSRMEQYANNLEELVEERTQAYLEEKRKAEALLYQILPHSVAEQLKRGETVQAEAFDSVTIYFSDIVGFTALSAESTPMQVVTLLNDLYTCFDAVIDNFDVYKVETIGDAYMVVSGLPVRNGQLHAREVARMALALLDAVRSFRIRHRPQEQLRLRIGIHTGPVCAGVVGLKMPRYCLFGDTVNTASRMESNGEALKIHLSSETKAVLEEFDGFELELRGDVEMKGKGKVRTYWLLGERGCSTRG
The experiment in a line: Agonist activity at rat NPR-A expressed in CHO cells assessed as increase in cGMP accumulation after 15 mins by fluorescent assay. The assay is classed as cell-based.

Assay [2] deals with Rattus norvegicus. The experiment in a line: In vivo agonist activity at NPR-A in Crl:CD(SD) rat assessed as increase in cGMP accumulation in plasma at 1 mg/kg/min, iv administered via infusion for 15 mins measured after 30 mins by radioimmunoassay. The assay is classed as functional, organism-based.
Assay [3] has as its target T2, Atrial natriuretic peptide receptor 1 (Homo sapiens, UniProt P16066).
T2 sequence (P16066 whole entry): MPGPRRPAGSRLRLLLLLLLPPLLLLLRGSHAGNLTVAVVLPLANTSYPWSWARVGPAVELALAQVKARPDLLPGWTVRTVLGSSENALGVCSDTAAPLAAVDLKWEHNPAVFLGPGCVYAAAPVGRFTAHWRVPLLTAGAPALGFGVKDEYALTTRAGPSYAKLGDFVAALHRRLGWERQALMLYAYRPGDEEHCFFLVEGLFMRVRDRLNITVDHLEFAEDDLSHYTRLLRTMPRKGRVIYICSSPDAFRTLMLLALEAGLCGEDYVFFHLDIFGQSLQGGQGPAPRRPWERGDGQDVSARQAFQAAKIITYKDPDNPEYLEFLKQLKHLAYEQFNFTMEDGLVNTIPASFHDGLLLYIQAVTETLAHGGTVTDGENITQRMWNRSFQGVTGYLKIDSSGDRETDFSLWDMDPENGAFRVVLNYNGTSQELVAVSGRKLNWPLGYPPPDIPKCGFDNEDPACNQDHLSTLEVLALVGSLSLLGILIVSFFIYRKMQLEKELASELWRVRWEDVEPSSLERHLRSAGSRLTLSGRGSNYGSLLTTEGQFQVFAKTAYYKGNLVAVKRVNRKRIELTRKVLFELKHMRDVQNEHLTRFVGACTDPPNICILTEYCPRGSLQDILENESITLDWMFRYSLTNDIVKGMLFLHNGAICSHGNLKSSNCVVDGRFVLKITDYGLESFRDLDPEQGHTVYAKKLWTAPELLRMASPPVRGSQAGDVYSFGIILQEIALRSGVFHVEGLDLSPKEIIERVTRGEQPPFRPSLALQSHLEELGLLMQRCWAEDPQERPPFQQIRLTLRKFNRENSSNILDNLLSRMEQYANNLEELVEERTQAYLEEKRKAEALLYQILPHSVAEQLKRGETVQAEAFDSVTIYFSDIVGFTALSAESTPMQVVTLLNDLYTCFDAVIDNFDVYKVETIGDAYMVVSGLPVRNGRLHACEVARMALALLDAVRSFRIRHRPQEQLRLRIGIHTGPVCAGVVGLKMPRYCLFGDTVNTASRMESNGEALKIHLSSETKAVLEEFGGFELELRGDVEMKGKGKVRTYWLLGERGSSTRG
The experiment in a line: Agonist activity at human NPR-A expressed in CHO cells assessed as increase in cGMP accumulation after 30 mins by radioimmunoassay. The assay is classed as cell-based.

Assay [4] has as its system Rattus norvegicus. The assay can be described thus: Diuretic activity in Crl:CD(SD) rat assessed as increase in urine volume at 1 mg/kg/min, iv administered as infusion over 30 mins measured after 20 mins post dose. It is filed as functional, organism-based.
The test system of assay [5] is Rattus norvegicus. The assay can be described thus: In vivo agonist activity at NPR-A in Crl:CD(SD) rat assessed as increase in cGMP accumulation in lungs at 1 mg/kg/min. It is filed as functional, organism-based.
In assay [6] the test system is Rattus norvegicus. The assay can be described thus: Diuretic activity in Crl:CD(SD) rat assessed as increase in urine volume at 1 mg/kg/min, iv administered as infusion over 30 mins measured after 40 mins post dose. It is filed as functional, organism-based.
The subject of assay [7] is Rattus norvegicus. The experiment in a line: In vivo agonist activity at NPR-A in Crl:CD(SD) rat assessed as increase in cGMP accumulation in heart at 1 mg/kg/min. The assay is classed as functional, organism-based.

Active and inactive are the calls of the source. The rule behind the calls is not given here.

For the molecule `CC(C)Nc1nc(N[C@H]2CC[C@@H](NC(=O)N[C@@H](CO)C(C)C)CC2)c2cc(-c3cccc(F)c3)cnc2n1`, the EC50 – broadly, the concentration at which the effect is half-maximal – in assay [1] worked out at 0.043 µM; in assay [3], 0.098 µM. Besides, in the assay on Rattus norvegicus [2], the result was Active.

In the case of `CC(C)[C@H](CO)NC(=O)N[C@H]1CC[C@@H](Nc2nc(N[C@H](C)CO)nc3cnc(-c4cccc(F)c4)cc23)CC1`, the EC50 worked out at 0.13 µM in assay [1] and 0.62 µM in assay [3].

Consider `CC(C)N[C@H]1C[C@H](C(=O)N[C@H]2CC[C@H](Nc3nc(N[C@H](C)CO)nc4ccc(-c5ccccc5)cc34)CC2)C1`, for which the figures for the EC50 in assay [1] and in assay [3] were 2 µM and 0.32 µM, respectively.

With `CC(C)NC(=O)N[C@H]1CC[C@@H](Nc2nc(NC(C)C)nc3ccc(-c4cccc(F)c4)cc23)CC1`, the values for the EC50 in assay [1] and in assay [3] were 0.42 µM and 1.5 µM, respectively.

As for `COC[C@@H](C)Nc1nc(N[C@H]2CC[C@@H](NC(=O)NC(C)C)CC2)c2nc(-c3cccc(F)c3)ccc2n1`, the figures for the 50% effective concentration (EC50) in assay [1] and in assay [3] were 1.6 µM and 4 µM, respectively.

For `CC(C)Nc1nc(N[C@H]2CC[C@@H](NC(=O)N[C@@H](CO)C(C)C)CC2)c2cc(-c3cccc(F)c3)ccc2n1`, the EC50 was determined as 0.29 µM in assay [1] and 1 µM in assay [3].

As for `C[C@H](CO)Nc1nc(N[C@H]2CC[C@@H](NC(=O)NC3CC3)CC2)c2cc(-c3cccc(F)c3)ccc2n1`, the EC50 in assay [1] was found to be 0.18 µM; in assay [3], 0.33 µM.

In the case of `COC[C@@H](C)Nc1nc(N[C@H]2CC[C@@H](NC(=O)NC3CC3)CC2)c2cc(-c3cccc(F)c3)ccc2n1`, the results for the concentration for a half-maximal effect (EC50) in assay [1] and in assay [3] were 0.27 µM and 0.34 µM, respectively.

With `C[C@H](CO)Nc1nc(N[C@H]2CC[C@H](NC(=O)[C@H]3C[C@H](O)C3)CC2)c2cc(-c3ccccc3)ccc2n1`, the half-maximal effective concentration (EC50) in assay [1] was found to be 1.8 µM; in assay [3], 0.9 µM.

On to `CC(C)[C@@H](CO)NC(=O)N[C@H]1CC[C@@H](Nc2nc(N[C@H](C)CO)nc3ccc(-c4cccc(F)c4)cc23)CC1`, for which the EC50 in assay [1] stood at 0.33 µM; in assay [3] it was 0.041 µM.

Consider `COCCNc1nc(N[C@H]2CC[C@@H](NC(=O)NC(C)C)CC2)c2cc(-c3cccc(F)c3)ccc2n1`, for which the figures for the EC50 in assay [1] and in assay [3] were 0.61 µM and 0.38 µM, respectively.

As for `CC(C)NC(=O)N[C@H]1CC[C@@H](Nc2nc(N[C@H](C)CO)nc3ccc(-c4cccc(F)c4)cc23)CC1`, the 50% effective concentration (EC50) is 0.074 µM in assay [1] and 0.32 µM in assay [3].

`C[C@H](CO)Nc1nc(N[C@H]2CC[C@@H](NC(=O)NC3(CO)CCCC3)CC2)c2cc(-c3cccc(F)c3)ccc2n1`: the half-maximal effective concentration (EC50) in assay [1] amounted to 0.12 µM; in assay [3], 0.078 µM.

Take `COC[C@@H](C)Nc1nc(N[C@H]2CC[C@@H](NC(=O)NC(C)C)CC2)c2cc(-c3cccc(F)c3)ccc2n1`: the EC50 was found to be 0.16 µM in assay [1] and 0.2 µM in assay [3].

Turning to `CC(C)Nc1nc(N[C@H]2CC[C@@H](NC(=O)N(C)C(C)C)CC2)c2cc(-c3cccc(F)c3)ccc2n1`, the 50% effective concentration (EC50) in assay [1] came to 3 µM; in assay [3], 4 µM.

Turning to `COC[C@H](C)Nc1nc(N[C@H]2CC[C@@H](NC(=O)NC3CC3)CC2)c2cc(-c3cccc(F)c3)ccc2n1`, the concentration giving a half-maximal response (EC50) in assay [1] is 1.8 µM; in assay [3], 0.85 µM.

Regarding `CC(C)[C@H](CO)NC(=O)N[C@H]1CC[C@@H](Nc2nc(N[C@H](C)CO)nc3ncc(-c4cccc(F)c4)cc23)CC1`, the result in the assay on Rattus norvegicus [4], with Rattus norvegicus [2], in the assay with Rattus norvegicus [5], in the assay with Rattus norvegicus [6] and with Rattus norvegicus [7] was Active. Moreover, the results for the EC50 in assay [1] and in assay [3] were 0.062 µM and 0.11 µM, respectively.

Take `C[C@H](CO)Nc1nc(N[C@H]2CC[C@@H](NC(=O)NC3CCCN(C)C3)CC2)c2cc(-c3cccc(F)c3)ccc2n1` (stereo partly specified): the 50% effective concentration (EC50) was 3.2 µM in assay [1] and 0.78 µM in assay [3].

Consider `C[C@H](CO)Nc1nc(N[C@H]2CC[C@H](NC(=O)[C@H]3C[C@H](O)C3)CC2)c2cc(-c3cccc(F)c3)ccc2n1`, for which the EC50 in assay [1] stood at 0.7 µM; in assay [3] it was 0.47 µM.

Regarding `C[C@H](CO)Nc1nc(N[C@H]2CC[C@@H](NC(=O)NC(C)(C)CO)CC2)c2cc(-c3cccc(F)c3)ccc2n1`, the EC50 in assay [1] is 0.066 µM; in assay [3], 0.22 µM. For the same molecule, in the assay on Rattus norvegicus [2], the outcome was Active.

For `CC(C)NC(=O)N[C@H]1CC[C@@H](Nc2nc(N(C)CCO)nc3ccc(-c4cccc(F)c4)cc23)CC1`, the concentration for a half-maximal effect (EC50) in assay [1] was 2.1 µM; in assay [3], 0.72 µM.

Take `CC(C)NC(=O)N[C@H]1CC[C@H](Nc2nc(N[C@H](C)CO)nc3ccc(-c4cccc(F)c4)cc23)CC1`: the half-maximal effective concentration (EC50) in assay [1] stood at 0.53 µM; in assay [3] it was 0.46 µM.

With `CC(C)[C@H](CO)NC(=O)N[C@H]1CC[C@@H](Nc2nc(N[C@H](C)CO)nc3ccc(-c4cccc(F)c4)cc23)CC1`, the values for the EC50 in assay [1] and in assay [3] were 0.065 µM and 0.071 µM, respectively. The result in the assay with Rattus norvegicus [2] was Active.

Turning to `C[C@H](CO)Nc1nc(N[C@H]2CC[C@H](NC(=O)N3CC(O)C3)CC2)c2cc(-c3cccc(F)c3)ccc2n1`, the EC50 amounted to 0.9 µM in assay [1] and 0.42 µM in assay [3].

The values are drawn from ChEMBL document CHEMBL4177698, “Discovery and in vivo effects of novel human natriuretic peptide receptor A (NPR-A) agonists with improved activity for rat NPR-A” (Bioorg Med Chem, 2017).
